From patent publication EP3057951B1, “METHYLENE LINKED QUINOLINYL MODULATORS OF ROR-GAMMA-T” (Janssen Pharmaceutica NV, priority 2013, dated 2015)
pIC50, pKd: −log10 of the molar value. Several values for one entry are separate records, joined by “and”; a condition that tells them apart may be missing. Equal values may be shown once. Where a name gives a salt, the structure may show the parent alone. Read-outs that look alike come from different tables or passages of the source.

How the values were obtained:
[1] = biological target: T1, wild type human RORγt LBD (Homo sapiens, UniProt P51449); assay: RORγt (LBD) Reporter Assay (GAL4-luciferase, HEK293T cells); type: cell-based; conditions: for inhibition at 6 µM: HEK-293T, read-out: RORγt (LBD) Reporter Assay, % inhibition @ 6 µM, 6 µM compound concentration; for RORγt (LBD) Reporter Assay, % inhibition @ 6 µM: 6 µM compound concentration
T1 construct: expressed in transfected cells; host or cells: HEK293T
T1 sequence (P51449 258-518): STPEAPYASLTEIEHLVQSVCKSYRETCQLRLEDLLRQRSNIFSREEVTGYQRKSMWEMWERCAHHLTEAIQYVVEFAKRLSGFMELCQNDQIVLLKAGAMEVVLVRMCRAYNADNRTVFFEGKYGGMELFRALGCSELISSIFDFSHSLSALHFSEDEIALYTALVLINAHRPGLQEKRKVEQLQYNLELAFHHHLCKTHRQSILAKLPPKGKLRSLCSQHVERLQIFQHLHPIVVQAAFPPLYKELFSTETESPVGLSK

[2] = biological target: T2, wild type human RORγt ligand binding domain (RORyt LBD) (Homo sapiens, UniProt P51449); assay: RORγt ThermoFluor assay (thermal shift, binding affinity KD)
T2 construct: His-tag (N); TurboTEV protease cleavage site (ENLYFQG) (N); made in house; host or cells: E. coli (pHIS1, modified pET vector)
T2 sequence (P51449 258-518): T1 sequence (P51449 258-518)

[3] = HEK293T cells, value after the comma with ∼, > or < could not be included in the average

Compound | pIC50 [1, 3] | inhibition at 6 µM [1] [%] | pKd [2] | RORγt (LBD) Reporter Assay, % inhibition @ 6 µM [1] [%] | pIC50 ([1]; HEK293T cells) | inhibition at 6 µM ([1]; HEK293T cells) [%] | RORγt (LBD) Reporter Assay, % inhibition @ 6 µM ([1]; HEK293T cells) [%]
COc1nc2ccc(C(O)(c3ccc(C)nc3C)c3cnnn3C)cc2c(Cl)c1Cc1ccc(-n2cncn2)cc1 (single isomer, unassigned) [Example 22b, (3-(4-(1H-1,2,4-Triazol-1-yl)benzyl)-4-chloro-2-methoxyquinolin-6-yl)(2,6-dimethylpyridin-3-yl)(1-methyl-1H-1,2,3-triazol-5-yl)methanol] | 6.10 | 97 | 6.32 | – | – | – | –
COc1nc2ccc(C(O)(c3ccc(C)nc3C)c3cnnn3C)cc2c(Cl)c1Cc1ccc(N(C)C)cc1 (single isomer, unassigned) [Example 24c, (4-Chloro-3-(4-(dimethylamino)benzyl)-2-methoxyquinolin-6-yl)(2,6-dimethylpyridin-3-yl)(1-methyl-1H-1,2,3-triazol-5-yl)methanol] | 7.60 | – | 9.49 | 97 | – | – | –
Cn1cncc1C(O)(c1ccc(Cl)cc1)c1ccc2nc(N3CCC3)c(Cc3ccc(-n4cccn4)cc3)c(Cl)c2c1 (centres unmarked) [Example 138a, {2-Azetidin-1-yl-4-chloro-3-[4-(1H-pyrazol-1-yl)benzyl]quinolin-6-yl}(4-chlorophenyl)(1-methyl-1H-imidazol-5-yl)methanol] | – | – | 6.89 | – | 6.89 | 98 | –
COc1nc2ccc(C(O)(c3ccc(C)nc3C)c3cnnn3C)cc2c(Cl)c1Cc1ccc(C)cc1 (single isomer, unassigned) [Example 20b, (4-Chloro-2-methoxy-3-(4-methylbenzyl)quinolin-6-yl)(2,6-dimethylpyridin-3-yl)(1-methyl-1H-1,2,3-triazol-5-yl)methanol] | 5.85 | 84 | 6.41 | – | – | – | –
Cn1cncc1C(O)(c1ccc(C(F)(F)F)nc1)c1ccc2nc(N3CC(F)C3)c(Cc3ccc(-n4cccn4)cc3)c(Cl)c2c1 (single isomer, unassigned) [Example 147c, {4-Chloro-2-(3-fluoroazetidin-1-yl)-3-[4-(1H-pyrazol-1-yl)benzyl]quinolin-6-yl}(1-methyl-1H-imidazol-5-yl)[6-(trifluoromethyl)pyridin-3-yl]methanol] | – | – | 8.28 | – | 7.28 | – | 96
COc1nc2ccc(C(O)(c3cnnn3C)c3cnc(C)n3C)cc2c(C#N)c1Cc1ccc(C(F)(F)F)nc1 (single isomer, unassigned) [Example 44b, 6-((1,2-Dimethyl-1H-imidazol-5-yl)(hydroxy)(1-methyl-1H-1,2,3-triazol-5-yl)methyl)-2-methoxy-3-((6-(trifluoromethyl)pyridin-3-yl)methyl)quinoline-4-carbonitrile] | 7.62 | 99 | 8.28 | – | – | – | –
COc1c(Cc2ccccc2)c(C(F)(F)F)nc2ccc(C(O)(c3ccc(C(F)(F)F)nc3)c3cncn3C)cc12 (centres unmarked) [Example 106a, (3-Benzyl-4-methoxy-2-(trifluoromethyl)quinolin-6-yl)(1-methyl-1H-imidazol-5-yl)(6-(trifluoromethyl)pyridin-3-yl)methanol•TFA] | – | 84 | 7.32 | – | – | – | –
COc1nc2ccc(C(O)(c3cnnn3C)c3cnnn3C)cc2c(Cl)c1Cc1ccc(C(F)(F)F)cc1 [Example 12, (4-Chloro-2-methoxy-3-(4-(trifluoromethyl)benzyl)quinolin-6-yl)bis(1-methyl-1H-1,2,3-triazol-5-yl)methanol] | 8.51 | 99 | 9.15 | – | – | – | –
COc1nc2ccc(C(O)(c3ccc(C#N)cc3)c3cncn3C)cc2c(C#N)c1Cc1ccc(-n2cncn2)cc1 (single isomer, unassigned) [Example 15c, 3-(4-(1H-1,2,4-Triazol-1-yl)benzyl)-6-((4-cyanophenyl)(hydroxy)(1-methyl-1H-imidazol-5-yl)methyl)-2-methoxyquinoline-4-carbonitrile] | 7.55 | – | 7.77 | 97 | – | – | –

Next, values leading:

pIC50 [1, 3] | inhibition at 6 µM [1] [%] | pKd [2] | RORγt (LBD) Reporter Assay, % inhibition @ 6 µM [1] [%] | pIC50 ([1]; HEK293T cells) | inhibition at 6 µM ([1]; HEK293T cells) [%] | RORγt (LBD) Reporter Assay, % inhibition @ 6 µM ([1]; HEK293T cells) [%] | Compound
7.70 | – | 8.11 | 101 | – | – | – | COc1nc2ccc(C(O)(c3cnnn3C)C3CCN(C(C)=O)CC3)cc2c(Cl)c1Cc1ccc(C(F)(F)F)cc1 (single isomer, unassigned) [Example 74c, 1-(4-((4-Chloro-2-methoxy-3-(4-(trifluoromethyl)benzyl)quinolin-6-yl)(hydroxy)(1-methyl-1H-1,2,3-triazol-5-yl)methyl)piperidin-1-yl)ethanone]
7.72 | 82 | 8.20 | – | – | – | – | Cn1cncc1C(O)(c1ccc(C#N)cc1)c1ccc2nc(C(F)(F)F)c(Cc3ccccc3)c(C#N)c2c1 (centres unmarked) [Example 104, 3-Benzyl-6-((4-cyanophenyl)(hydroxy)(1-methyl-1H-imidazol-5-yl)methyl)-2-(trifluoromethyl)quinoline-4-carbonitrile•TFA]
– | – | 8.41 | – | ~8.15 | 93 | – | COc1nc2ccc(C(O)(c3ccc(F)cc3)C3CCN(C(C)=O)CC3)cc2c(Cl)c1Cc1ccc(-n2cccn2)cc1 (centres unmarked) [Example 157a, 1-(4-((3-(4-(1H-Pyrazol-1-yl)benzyl)4-chloro-2-methoxyquinolin-6-yl)(4-fluorophenyl)(hydroxy)methyl)piperidin-1-yl)ethanone]
~6.66 | 92 | 6.89 | – | – | – | – | COc1nc2ccc(C(O)(c3ccc(C)nc3C)c3cnnn3C)cc2c(Cl)c1Cc1ccc(N(C)C)cc1 (single isomer, unassigned) [Example 24b, (4-Chloro-3-(4-(dimethylamino)benzyl)-2-methoxyquinolin-6-yl)(2,6-dimethylpyridin-3-yl)(1-methyl-1H-1,2,3-triazol-5-yl)methanol]
6.21 and ~5.70 | 83 | 5.51 | – | – | – | – | CCCCc1nc2ccc(C(O)(c3cccnc3)c3cccc(F)c3)cc2c(Cl)c1Cc1ccc(-n2cccn2)cc1 (centres unmarked) [Example 60, (3-(4-(1H-Pyrazol-1-yl)benzyl)-2-butyl-4-chloroquinolin-6-yl)(3-fluorophenyl)(pyridin-3-yl)methanol•TFA]
– | – | 5.64 | – | 6.00 | 83 | – | Cc1cc(C(O)(c2ccc(Cl)cc2)c2cncn2C)cc2c(Cl)c(Cc3ccc(-n4cccn4)cc3)c(N3CCC3)nc12 (single isomer, unassigned) [Example 136b, {2-Azetidin-1-yl-4-chloro-8-methyl-3-[4-(1H-pyrazol-1-yl)benzyl]quinolin-6-yl}(4-chlorophenyl)(1-methyl-1H-imidazol-5-yl)methanol]
– | – | 7.08 | – | 6.68 | 103 | – | Cn1cncc1C(O)(c1ccc(C(F)(F)F)nc1)c1ccc2nc(N3CCOCC3)c(Cc3ccc(-n4cccn4)cc3)c(Cl)c2c1 (single isomer, unassigned) [Example 146b, {4-Chloro-2-morpholin-4-yl-3-[4-(1H-pyrazol-1-yl)benzyl]quinolin-6-yl}(1-methyl-1H-imidazol-5-yl)[6-(trifluoromethyl)pyridin-3-yl]methanol]
7.82 | 102 | 8.30 | – | – | – | – | COc1nc2ccc(C(O)(c3cnnn3C)C3CCN(C(C)=O)CC3)cc2c(Cl)c1Cc1ccc(C(F)(F)F)cc1 (single isomer, unassigned) [Example 74b, 1-(4-((4-Chloro-2-methoxy-3-(4-(trifluoromethyl)benzyl)quinolin-6-yl)(hydroxy)(1-methyl-1H-1,2,3-triazol-5-yl)methyl)piperidin-1-yl)ethanone]
– | – | 5.77 | – | 5.80 | 93 | – | Cc1ccc(C(O)(c2ccc3nc(NC4CC4)c(Cc4ccc(C(F)(F)F)cc4)c(Cl)c3c2)c2cnnn2C)c(C)n1 (single isomer, unassigned) [Example 143b, {4-Chloro-2-(cyclopropylamino)-3-[4-(trifluoromethyl)benzyl]quinolin-6-yl}(2,6-dimethylpyridin-3-yl)(1-methyl-1H-1,2,3-triazol-5-yl)methanol]
6.68 | 98 | 7.21 | – | – | – | – | COc1nc2ccc(C(N)(c3ccc(C(F)(F)F)nc3)c3cncn3C)cc2c(Cl)c1Cc1cc2ccccc2s1 (racemic) [Example 71a, (3-(Benzo[b]thiophen-2-ylmethyl)4-chloro-2-methoxyquinolin-6-yl)(1-methyl-1H-imidazol-5-yl)(6-(trifluoromethyl)pyridin-3-yl)methanamine]
7.70 | – | 8.34 | 100 | – | – | – | COc1nc2ccc(C(O)(c3ccccc3)C3CCN(C(C)=O)CC3)cc2c(Cl)c1Cc1ccc(-n2ccnc2)cc1 (centres unmarked) [Example 16c]
– | – | 6.09 | – | 6.11 | – | 95 | Cn1cncc1C(O)(c1ccc(C(F)(F)F)nc1)c1ccc2nc(N3CCCC3)c(Cc3ccc(-n4cccn4)cc3)c(Cl)c2c1 (single isomer, unassigned) [Example 145c, {4-Chloro-3-[4-(1H-pyrazol-1-yl)benzyl]-2-pyrrolidin-1-ylquinolin-6-yl}(1-methyl-1H-imidazol-5-yl)[6-(trifluoromethyl)pyridin-3-yl]methanol]
